# Laboratory results published in the Deep4Chem optical property database.
# Test: photoluminescence quantum yield (fraction); solvent given as SMILES
smiles,measurement,setting,value
c1ccc(-c2cccc3ncc(-c4ccccc4)n23)cc1,photoluminescence quantum yield,in ClCCl,0.24
O=c1oc2ccccc2cc1-c1cn2ccccc2n1,photoluminescence quantum yield,in ClC(Cl)Cl,0.15
CCCCCc1ccc(C#Cc2cc(C#Cc3ccc(CCCCC)cc3)c3ccc4c(C(=O)c5ccccc5)cc(C#Cc5ccc(CCCCC)cc5)c5ccc2c3c54)cc1,photoluminescence quantum yield,in ClCCl,0.43
Fc1c(F)c(F)c([B-]2(c3c(F)c(F)c(F)c(F)c3F)Oc3c(ccc4c5c(ccc34)C=[N+](c3ccccc3)[B-](c3c(F)c(F)c(F)c(F)c3F)(c3c(F)c(F)c(F)c(F)c3F)O5)C=[N+]2c2ccccc2)c(F)c1F,photoluminescence quantum yield,in Cc1ccccc1,0.81
same,photoluminescence quantum yield,in ClCCl,0.8
C[Si]1(C)O[Si](C)(C)c2cc3c(-c4ccccc4)c4cc([N+](=O)[O-])ccc4nc3cc21,photoluminescence quantum yield,in ClCCl,0.3
COCCOCCOCCOCC(COCCOCCOCCOC)Oc1cc(/C=C/c2ccc(/C=C(\C#N)C(=O)c3ccccc3)cc2)c(OC(COCCOCCOCCOC)COCCOCCOCCOC)cc1/C=C/c1ccc(/C=C(\C#N)C(=O)c2ccccc2)cc1,photoluminescence quantum yield,in ClCCl,0.23
O=[N+]([O-])c1ccc(/C=C/c2nc3c4ccccc4c4ccccc4c3o2)cc1,photoluminescence quantum yield,in CC#N,0.2
Cc1cc(=O)oc2ccc3ccc(-c4cn(Cc5ccccc5)nn4)cc3c12,photoluminescence quantum yield,in CCO,0.35
Nc1cccc2cn[nH]c12,photoluminescence quantum yield,in CC#N,0.3
same,photoluminescence quantum yield,in CO,0.11
same,photoluminescence quantum yield,in O,0.07
COc1ccc(-c2csc(/C(C#N)=N\Nc3ccc(C#N)cc3)n2)cc1,photoluminescence quantum yield,in CC#N,0.001
same,photoluminescence quantum yield,in CCO,0.002
same,photoluminescence quantum yield,in CN(C)C=O,0
same,photoluminescence quantum yield,in Cc1ccccc1,0.002
same,photoluminescence quantum yield,in ClCCl,0.002
C[P+](c1c2ccccc2cc2ccccc12)(c1c2ccccc2cc2ccccc12)c1c2ccccc2cc2ccccc12,photoluminescence quantum yield,in C1CCOC1,0.0077
c1coc(-c2nc3ccccc3[nH]2)c1,photoluminescence quantum yield,in C1CCOC1,0.87
same,photoluminescence quantum yield,in CCCCCC,0.95
same,photoluminescence quantum yield,in CCO,0.93
same,photoluminescence quantum yield,in CCOCC,0.94
same,photoluminescence quantum yield,in CO,0.97
same,photoluminescence quantum yield,in ClC(Cl)Cl,0.28
same,photoluminescence quantum yield,in ClCCl,0.86
same,photoluminescence quantum yield,in O,0.96
C(#Cc1cccs1)c1ncc(-c2ccccc2)o1,photoluminescence quantum yield,in ClCCl,0
CN(C)c1ccc(-c2cc(-c3cccs3)nc(-c3ccccc3)n2)cc1,photoluminescence quantum yield,in ClC(Cl)Cl,0.46
COCCOCCOCCOCC(COCCOCCOCCOC)Oc1cc(/C=C/c2ccc(C=C(C#N)C#N)cc2)c(OC(COCCOCCOCCOC)COCCOCCOCCOC)cc1/C=C/c1ccc(C=C(C#N)C#N)cc1,photoluminescence quantum yield,in ClCCl,0.53
Nc1ccc2cn[nH]c2c1,photoluminescence quantum yield,in C1CCCCC1,0.34
same,photoluminescence quantum yield,in CC#N,0.33
same,photoluminescence quantum yield,in CO,0.31
same,photoluminescence quantum yield,in O,0.39
Nc1ccc2c(ccc3[n+]2[B-](F)(F)n2c-3cc3c4ccccc4c4ccccc4c32)c1,photoluminescence quantum yield,in ClCCl,0.81
CN(C)C(=O)c1ccc(-c2nc3ccc(N(C)C)cc3s2)cc1,photoluminescence quantum yield,in C1CCCCC1,0.84
same,photoluminescence quantum yield,in CC#N,0.85
same,photoluminescence quantum yield,in CC(C)O,0.81
same,photoluminescence quantum yield,in CO,0.92
same,photoluminescence quantum yield,in CS(C)=O,0.9
same,photoluminescence quantum yield,in ClC(Cl)Cl,0.89
same,photoluminescence quantum yield,in c1ccccc1,0.98
CC(C)c1cc(C(C)C)c(B2c3cc(-n4c5ccccc5c5ccccc54)ccc3N(c3ccccc3)c3ccc(-n4c5ccccc5c5ccccc54)cc32)c(C(C)C)c1,photoluminescence quantum yield,in c1cc(-c2cccc(-n3c4ccccc4c4ccccc43)c2)cc(-n2c3ccccc3c3ccccc32)c1,0.99
O=c1c2cccc3cccc(c32)c2nc3c(F)c(F)c(F)c(F)c3n12,photoluminescence quantum yield,in ClCCl,0.82
CC(C)(C)c1cc(-c2c3cc(c(-c4cc(C(C)(C)C)cc(C(C)(C)C)c4)c4ccc([nH]4)c(-c4ccc([N+](=O)[O-])cc4)c4nc(c(-c5ccc([N+](=O)[O-])cc5)c5ccc2[nH]5)C=C4)N=C3)cc(C(C)(C)C)c1,photoluminescence quantum yield,in ClCCl,0.0263
CCC1(CC)c2cc(N(c3ccccc3)c3ccccc3)ccc2-c2c1c1c(c3c2C(CC)(CC)c2cc(N(c4ccccc4)c4ccccc4)ccc2-3)C(CC)(CC)c2cc(N(c3ccccc3)c3ccccc3)ccc2-1,photoluminescence quantum yield,in C1CCOC1,0.27
c1ccc([B-]2(c3ccccc3)Oc3ccc4ccccc4c3-c3c4ccccc4nc[n+]32)cc1,photoluminescence quantum yield,in Cc1ccccc1,0.25
CN(C)c1cc(-c2ccccc2)cc2ccccc12,photoluminescence quantum yield,in ClCCl,0.52
Cc1nc2cc(/C=C/c3ccc(N(C)C)cc3)ccc2nc1-c1ccccc1,photoluminescence quantum yield,in C1COCCO1,0.29
same,photoluminescence quantum yield,in CC#N,0.01
same,photoluminescence quantum yield,in ClCCl,0.09
CCCC1(CCC)c2cc(-c3ccc(C(C)(C)CC)cc3)ccc2-c2ccc(-c3ccc(C(C)(C)CC)cc3)cc21,photoluminescence quantum yield,in C1CCCCC1,0.92
CCc1c(C)c2n(c1C)[B-](F)(F)[N+]1=C(C=C3c4ccccc4-c4ccccc43)C=CC1=C2C,photoluminescence quantum yield,in C1CCCCC1,0.73
FC(F)(F)c1ccc2oc3nc4oc5ccc(-n6c7ccccc7c7ccccc76)cc5c4cc3c2c1,photoluminescence quantum yield,in ClC(Cl)Cl,0.074
CCCCCCCCCCCCCCCCCCN1C(=O)c2ccc3c4ccc5c6c(ccc(c7ccc(c2c37)C1=O)c64)C(=O)NC5=O,photoluminescence quantum yield,in CN(C)C=O,0.37
CC1(C)C(=O)C=Cc2ccc(N)cc21,photoluminescence quantum yield,in O,0.14
CCCCCCc1ccc2c3c(ccc2c1)O[B-](c1ccccc1)(c1ccccc1)[N+](c1ccc([N+]2=Cc4c(ccc5cc(CCCCCC)ccc45)O[B-]2(c2ccccc2)c2ccccc2)cc1)=C3,photoluminescence quantum yield,in C1CCOC1,0.32
same,photoluminescence quantum yield,in CC#N,0.27
same,photoluminescence quantum yield,in Cc1ccccc1,0.35
same,photoluminescence quantum yield,in ClCCl,0.47
Nc1cccc2ccccc12,photoluminescence quantum yield,in C1CCCCC1,0.6
Cc1ccc(C2=C3C=CC(c4ccccc4)=[N+]3[B-](F)(F)n3c(Cl)ccc32)cc1,photoluminescence quantum yield,in C1CCCCC1,0.076
same,photoluminescence quantum yield,in C1CCOC1,0.084
same,photoluminescence quantum yield,in C1COCCO1,0.079
same,photoluminescence quantum yield,in CCOC(C)=O,0.046
same,photoluminescence quantum yield,in CO,0.037
same,photoluminescence quantum yield,in Cc1ccccc1,0.13
same,photoluminescence quantum yield,in ClC(Cl)Cl,0.095
